The test system of data set [1] is human cytomegalovirus (HCMV), strain AD-169. The data set is described as follows: Antiviral test (plaque reduction) versus HCMV, strain AD-169, in MRC-5 cells. In kind it is cell-based. The conditions noted are these: for Activity against HCMV: statement in words on the plaque reduction results.
[2] abbreviates: 10 μg/ml, Example 2, ethanol stock (protohypericin in DMSO), cells exposed 6 or more days.
Setting [3] is: Example 2, cells exposed 6 or more days.
[4] abbreviates: Table 9 summary, two values = two experiments.
[5] abbreviates: Human betaherpesvirus 5, AD169, MRC5, 0.01 μg/ml, Example 2, read-out: Percent Inhibition of Plaque Numbers (Compared to Virus Controls).
The mark [6] stands for this setting: Human betaherpesvirus 5, AD169, MRC5, 0.032 μg/ml, Example 2, read-out: Percent Inhibition of Plaque Numbers (Compared to Virus Controls).
Setting [7] is: Human betaherpesvirus 5, AD169, MRC5, 0.1 μg/ml, Example 2, read-out: Percent Inhibition of Plaque Numbers (Compared to Virus Controls).
Setting [8] is: Human betaherpesvirus 5, AD169, MRC5, 0.32 μg/ml, Example 2, read-out: Percent Inhibition of Plaque Numbers (Compared to Virus Controls).
Where [9] appears, read: Human betaherpesvirus 5, AD169, MRC5, 1.0 μg/ml, Example 2, read-out: Percent Inhibition of Plaque Numbers (Compared to Virus Controls).
[10] abbreviates: Human betaherpesvirus 5, AD169, MRC5, 3.2 μg/ml, Example 2, read-out: Percent Inhibition of Plaque Numbers (Compared to Virus Controls).
Where [11] appears, read: Human betaherpesvirus 5, AD169, MRC5, 10 μg/ml, Example 2, ethanol stock (protohypericin in DMSO), cells exposed 6 or more days, read-out: Percent Inhibition of Plaque Numbers (Compared to Virus Controls).
[12] abbreviates: Human betaherpesvirus 5, AD169, MRC5, read-out: % Reduction.
The mark [13] stands for this setting: Human betaherpesvirus 5, AD169, MRC5, read-out: Percent Inhibition of Plaque Numbers (Compared to Virus Controls).

These results are taken from patent US6686393B1, “Pharmaceutical compositions having antiviral activity against human cytomegalovirus” (Murdock International Corporation, priority 1990, dated 2004).

“And” between values parts separate entries of the source, which are not always exact repeats. Identical values can stand only once. “Also recorded” adds a separate entry of the source. Like-named read-outs stand apart in the source and are kept apart here.

For `O=C1c2cccc(O)c2C(=O)c2c(O)cccc21` [1,8-Dihydroxyanthraquinone, 1,8-dihydroxyanthraquinone], the “Number of Plaques” value in data set [1] (0.01 μg/ml, Example 6) was found to be 10; in data set [1] (0.01 μg/ml, Example 7), 26; in data set [1] (0.032 μg/ml, Example 6), 9; in data set [1] (0.032 μg/ml, Example 7), 20; in data set [1] (0.1 μg/ml, Example 6), 10; in data set [1] (0.1 μg/ml, Example 7) it was 22. For the same compound, the “Number of Plaques” value in data set [1] (0.32 μg/ml, Example 6) was determined as 12; in data set [1] (0.32 μg/ml, Example 7), 44; in data set [1] (1.0 μg/ml, Example 6), 10; in data set [1] (1.0 μg/ml, Example 7) it was 35; in data set [1] (3.2 μg/ml, Example 6) it was 8; in data set [1] (3.2 μg/ml, Example 7), 42. Moreover, the “Number of Plaques” value is 12 in data set [1] (10.0 μg/ml, Example 6) and 30 in data set [1] (10.0 μg/ml, Example 7). In addition, the inhibition at 0.01 µg/mL in data set [1] (Human betaherpesvirus 5, AD169, MRC5, 0.01 μg/ml, Example 6, read-out: % Reduction) is 0%; in data set [1] (Human betaherpesvirus 5, AD169, MRC5, 0.01 μg/ml, Example 7, read-out: % Reduction), 0%. Further, the inhibition at 0.032 µg/mL in data set [1] (Human betaherpesvirus 5, AD169, MRC5, 0.032 μg/ml, Example 6, read-out: % Reduction) stood at 0%; in data set [1] (Human betaherpesvirus 5, AD169, MRC5, 0.032 μg/ml, Example 7, read-out: % Reduction), 37%. Besides, the inhibition at 0.1 µg/mL in data set [1] (Human betaherpesvirus 5, AD169, MRC5, 0.1 μg/ml, Example 6, read-out: % Reduction) stood at 0%; in data set [1] (Human betaherpesvirus 5, AD169, MRC5, 0.1 μg/ml, Example 7, read-out: % Reduction), 31%. Also, the inhibition at 0.32 µg/mL in data set [1] (Human betaherpesvirus 5, AD169, MRC5, 0.32 μg/ml, Example 6, read-out: % Reduction) was 0%; in data set [1] (Human betaherpesvirus 5, AD169, MRC5, 0.32 μg/ml, Example 7, read-out: % Reduction), 0%. Also, the inhibition at 1 µg/mL in data set [1] (Human betaherpesvirus 5, AD169, MRC5, 1.0 μg/ml, Example 6, read-out: % Reduction) was determined as 0%; in data set [1] (Human betaherpesvirus 5, AD169, MRC5, 1.0 μg/ml, Example 7, read-out: % Reduction) it was 0%. The inhibition at 3.2 µg/mL in data set [1] (Human betaherpesvirus 5, AD169, MRC5, 3.2 μg/ml, Example 6, read-out: % Reduction) is 0%; in data set [1] (Human betaherpesvirus 5, AD169, MRC5, 3.2 μg/ml, Example 7, read-out: % Reduction), 0%. Further, the inhibition at 10 µg/mL is 0% in data set [1] (Human betaherpesvirus 5, AD169, MRC5, 10.0 μg/ml, Example 6, read-out: % Reduction) and 0% in data set [1] (Human betaherpesvirus 5, AD169, MRC5, 10.0 μg/ml, Example 7, read-out: % Reduction). Besides, the “Activity against HCMV” value in data set [1] (listed as 1,8-dihydroxy anthraquinone) was “Slight activity”; in data set [1] (listed as 1,8-dihydroxyanthraquinone), “show activity; also recorded: activity but at lower levels”. Besides, the CD50 in the data set with MRC-5 cells (human) was over 10 µg/mL.
On to `O=C(O)c1cc(O)c2c(c1)[C@H]([C@H]1c3cc(C(=O)O)cc(O)c3C(=O)c3c(O[C@@H]4O[C@H](CO)[C@@H](O)[C@H](O)[C@H]4O)cccc31)c1cccc(O[C@@H]3O[C@H](CO)[C@@H](O)[C@H](O)[C@H]3O)c1C2=O` [(+)Sennoside A, sennoside A], for which the “Percent Inhibition of Plaque Numbers (Compared to Virus Controls)” value (shortened to “Percent Inhibition of Plaque Numbers”) in data set [1] (0.01 μg/ml, Example 2) is recorded as 0%; in data set [1] (0.032 μg/ml, Example 2) it was 0%; in data set [1] (0.1 μg/ml, Example 2), 0%; in data set [1] (0.32 μg/ml, Example 2) it was 0%; in data set [1] (1.0 μg/ml, Example 2), 0%; in data set [1] (3.2 μg/ml, Example 2), 0%. In addition, the “Percent Inhibition of Plaque Numbers” value in data set [1] (setting [2]) was found to be 0%. For the same compound, the CD50 in the data set with MRC-5 cells (setting [3]) and with MRC-5 cells (setting [4]) was over 10 µg/mL in each case.
As to `O=C1c2cccc(O)c2C(=O)c2c(O)cc(CO)cc21` [Aloe-Emodin, aloe-emodin], in data set [1] (setting [5]), the inhibition at 0.01 µg/mL stood at 0%. Besides, the inhibition at 0.032 µg/mL in data set [1] (setting [6]) was 0%. Also, the inhibition at 0.1 µg/mL in data set [1] (setting [7]) is 0%. For the same compound, the inhibition at 0.32 µg/mL in data set [1] (setting [8]) came to 0%. For the same compound, the inhibition at 1 µg/mL in data set [1] (setting [9]) worked out at 0%. The inhibition at 3.2 µg/mL in data set [1] (setting [10]) was 0%. In data set [1] (setting [11]), the inhibition at 10 µg/mL was 0%. In the data set on MRC-5 cells (human), the CD50 was over 10 µg/mL.
`O=C1c2c(O)cccc2C([C@@H]2O[C@H](CO)[C@@H](O)[C@H](O)[C@H]2O)c2cc(CO)cc(O)c21` (some centres unmarked) [Aloin, aloin]: the “Number of Plaques” value in data set [1] is 24 and 26 and 20 and 16. Besides, in data set [1] (setting [12]), the inhibition at 0.01 µg/mL turned out to be 0%, the inhibition at 0.032 µg/mL was found to be 0%, the inhibition at 0.1 µg/mL stood at 0% and the inhibition at 0.32 µg/mL was 0%. Also, in data set [1] (setting [12]), the inhibition at 1 µg/mL stood at 0%, the inhibition at 3.2 µg/mL is 0% and the inhibition at 10 µg/mL was 0%. The compound further had a CD50 in the data set on MRC-5 cells (human) of over 10 µg/mL.
On to `O=C1c2ccc(O)cc2C(=O)c2ccc(O)cc21` [Anthraflavic Acid, anthraflavic acid], for which, in data set [1] (setting [13]), the inhibition at 0.01 µg/mL is 0%, the inhibition at 0.032 µg/mL is 0%, the inhibition at 0.1 µg/mL amounted to 0% and the inhibition at 0.32 µg/mL was 0%. Also, in data set [1] (setting [13]), the inhibition at 1 µg/mL was 11% and the inhibition at 3.2 µg/mL is 15%. In the data set with MRC-5 cells (human), this compound gave a CD50 of 3.4 µg/mL.
For the compound `O=C1c2ccccc2C(=O)c2ccccc21` [Anthraquinone, anthraquinone], the “Number of Plaques” value stood at 36 in data set [1] (0.01 μg/ml, Example 5); 27 in data set [1] (0.032 μg/ml, Example 5); 30 in data set [1] (0.1 μg/ml, Example 5); 32 in data set [1] (0.32 μg/ml, Example 5); 34 in data set [1] (1.0 μg/ml, Example 5); 36 in data set [1] (3.2 μg/ml, Example 5). The “Number of Plaques” value in data set [1] (10.0 μg/ml, Example 5) turned out to be 55. The inhibition at 0.01 µg/mL in data set [1] (Human betaherpesvirus 5, AD169, MRC5, 0.01 μg/ml, Example 5, read-out: % Reduction) was 20%. Also, the inhibition at 0.032 µg/mL in data set [1] (Human betaherpesvirus 5, AD169, MRC5, 0.032 μg/ml, Example 5, read-out: % Reduction) came to 27%. Also, in data set [1] (Human betaherpesvirus 5, AD169, MRC5, 0.1 μg/ml, Example 5, read-out: % Reduction), the inhibition at 0.1 µg/mL was found to be 33%. For the same compound, in data set [1] (Human betaherpesvirus 5, AD169, MRC5, 0.32 μg/ml, Example 5, read-out: % Reduction), the inhibition at 0.32 µg/mL amounted to 29%. Further, the inhibition at 1 µg/mL in data set [1] (Human betaherpesvirus 5, AD169, MRC5, 1.0 μg/ml, Example 5, read-out: % Reduction) amounted to 24%. Besides, in data set [1] (Human betaherpesvirus 5, AD169, MRC5, 3.2 μg/ml, Example 5, read-out: % Reduction), the inhibition at 3.2 µg/mL was determined as 20%. Also, the inhibition at 10 µg/mL in data set [1] (Human betaherpesvirus 5, AD169, MRC5, 10.0 μg/ml, Example 5, read-out: % Reduction) is 0%. In addition, the CD50 in the data set with MRC-5 cells (human) was over 10 µg/mL.
Turning to `O=C1c2cccc(O)c2C(=O)c2cccc(O)c21` [Anthrarufin, anthrarufin], in data set [1] (setting [12]), the inhibition at 0.01 µg/mL was 0%, the inhibition at 0.032 µg/mL was found to be 0%, the inhibition at 0.1 µg/mL was determined as 0% and the inhibition at 0.32 µg/mL stood at 0%. In addition, in data set [1] (setting [12]), the inhibition at 1 µg/mL came out at 0%, the inhibition at 3.2 µg/mL is 0% and the inhibition at 10 µg/mL amounted to 0%. This compound came in with a CD50 in the data set with MRC-5 cells (human) of over 10 µg/mL.
For `Cc1cc(O)c2c(c1)C(=O)c1cccc(O)c1C2=O` [Chrysophanol, chrysophanol], the inhibition at 0.01 µg/mL in data set [1] (setting [5]) was 0%. The inhibition at 0.032 µg/mL in data set [1] (setting [6]) came to 0%. Further, the inhibition at 0.1 µg/mL in data set [1] (setting [7]) is 0%. Further, in data set [1] (setting [8]), the inhibition at 0.32 µg/mL was 0%. Moreover, the inhibition at 1 µg/mL in data set [1] (setting [9]) came out at 0%. Besides, in data set [1] (setting [10]), the inhibition at 3.2 µg/mL is 0%. The inhibition at 10 µg/mL in data set [1] (setting [11]) stood at 0%. The compound also gave a CD50 in the data set on MRC-5 cells (human) of over 10 µg/mL.
Regarding `Cc1cc(O)c2c(c1)C(C1c3cc(C)cc(O)c3C(=O)c3c(O)cc(O)cc31)c1cc(O)cc(O)c1C2=O` (centres unmarked) [Emodin Bianthrone (d,1), emodin bianthrone], the “Percent Inhibition of Plaque Numbers” value in data set [1] (0.01 μg/ml, Example 2) is on record as 0%; in data set [1] (0.032 μg/ml, Example 2), 0%; in data set [1] (0.1 μg/ml, Example 2), 0%; in data set [1] (0.32 μg/ml, Example 2), 0%; in data set [1] (1.0 μg/ml, Example 2), 33%; in data set [1] (3.2 μg/ml, Example 2) it was “toxic”. Also, the “Percent Inhibition of Plaque Numbers” value in data set [1] (setting [2]) is “toxic”. Besides, the CD50 in the data set on MRC-5 cells (setting [3]) and in the data set with MRC-5 cells (setting [4]) was 1.2 µg/mL in each case.
